Data from patent publication US20150211005A1, “MIRNA MODULATORS OF THERMOGENESIS” (APTAMIR THERAPEUTICS, INC., priority 2012, published 2015).

Assays:
[1] = system: human subcutaneous adipocytes; assay: Phenotypic changes of mature adipocytes cultured two weeks, bright field microscopy; assay type: cell-based; conditions: day 28; for Average size of lipid droplet: change versus control (Ref); for Average size of lipid droplet / Picture field covered by adipocytes (% of control) / Cell area occupied by lipid droplets (%) / Number of lipid droplet per cell: 50 nM miRNA analogs, 10 μM CL316,243, 10 nM T3, 100 nM Rosiglitazone; for Picture field covered by adipocytes (% of control): Dharmafect 4; for Cell area occupied by lipid droplets (%): control 42%; for Number of lipid droplet per cell: control 68
Protocol: Human subcutaneous adipocytes were plated in 6-well plates at a density of 391,000 cells per well as described above. Using Dharmafect 4, these adipocytes were transfected at Day 14 with:
1. […] A negative control (mock transfection) 3.
At day 17, the cells were switched to maintenance medium, which was then changed every two-three days until day 28 when bright field microscopy pictures of the cells were taken.

UCP3 = assay: RNA-Seq mRNA expression during pre-adipocyte differentiation: UCP3; assay type: cell-based, human; conditions: pre-adipocytes, 12 days, rosiglitazone 100 nM renewed every other day, miRNA analogs 25 nM, one transfection
Protocol: (§1) In order to assess the effect of miRNA analogs on human pre-adipocytes differentiation into mature adipocytes, human subcutaneous pre-adipocytes (SuperLot 0048 from 8 female donors, ZenBio, NC) were plated on Day 0 into 96-well plates and allowed to attach overnight in preadipocyte medium (DMEM/Ham's F-12 (1:1, v/v), HEPES buffer, Fetal bovine serum and Antibiotics). […] All treatments were in triplicate. Post transfection, the negative control was maintenance medium only and the positive control was maintenance medium with 100 nM of the PPARG agonist rosiglitazone. After 2 days, medium was removed and replaced with fresh maintenance medium. The maintenance medium then changed every two days until the end of the treatment period (Day 15). At the end of the treatment (total of 15 days in culture) cells were processed for Phenotyping and Genotyping Screening.
(§2) Profiling of mRNA changes occurring during the differentiation of human pre-adipocyte into mature adipocyte induced by rosiglitazone or miRNA analogs was performed by RNA-Seq technology. […]
(§3) Changes in mRNA expression of UCP1, 2 and 3 were also measured in the presence of rosiglitazone or miRNA analogs, as shown below in Table 18.

UCP1 = assay: RNA-Seq mRNA expression during pre-adipocyte differentiation: UCP1; assay type: cell-based, human; conditions: pre-adipocytes, 12 days, rosiglitazone 100 nM renewed every other day, miRNA analogs 25 nM, one transfection
Protocol: as §1, §2, §3

Structure (SMILES)	Average size of lipid droplet [1] [%]	Picture field covered by adipocytes (% of control) [1]	Cell area occupied by lipid droplets (%) [1] [%]	Number of lipid droplet per cell [1]	cell density and browning appearance (bright field, FIG. 22) ([1]; in reference to the control condition)	mRNA Expression changes UCP3 (UCP3) [log ratios]	mRNA Expression changes UCP1 (UCP1) [log ratios]
C[C@H](Cc1ccc2c(c1)OC(C(=O)[O-])(C(=O)[O-])O2)NC[C@H](O)c1cccc(Cl)c1.[Na+].[Na+] [CL316,243]	−44	+24% of control	44	124	increase in cell density and “browning” appearance		
CN(CCOc1ccc(CC2SC(=O)NC2=O)cc1)c1ccccn1 (centres unmarked) [Rosiglitazone]	−19	+198% of control	57	113		0.26	15.70
